Legend:
rape = experiment: Test B pre/postemergence rape; format: in vivo, Brassica napus
Procedure, shortened: (§1)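 Response is a visual 0-to-10 score relative to untreated plants, where 0 means no effect and 10 means complete control, taken twelve to sixteen days after application. Treatments went onto soil at planting and onto foliage of 1- to 4-leaf plants, using a surfactant-containing non-phytotoxic solvent.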

surinam grass = experiment: Test B pre/postemergence surinam grass; format: in vivo, Brachiaria decumbens
Procedure, shortened: as §1

bedstraw = experiment: Test B pre/postemergence bedstraw; format: in vivo, Galium aparine
Procedure, shortened: as §1

bamyardgrass = experiment: Test B flood test barnyardgrass; format: in vivo, Echinochloa crus-galli
Procedure, shortened: (§2)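 Read-out is a visual response score from 0 (no effect) to 10 (complete control), assigned by comparison with untreated controls. Treatment was applied at the 2-leaf stage, and plants stayed in the greenhouse for twelve to sixteen days before scoring.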

blackgrass = experiment: Test B pre/postemergence blackgrass; format: in vivo, Alopecurus myosuroides
Procedure, shortened: as §1

wheat = experiment: Test B pre/postemergence wheat; format: in vivo, Triticum aestivum
Procedure, shortened: as §1

sugar beet = experiment: Test B pre/postemergence sugar beet; format: in vivo, Beta vulgaris
Procedure, shortened: as §1

corn = experiment: Test B pre/postemergence corn; format: in vivo, Zea mays
Procedure, shortened: as §1

morningglory = experiment: Test B pre/postemergence morningglory; format: in vivo, Ipomoea hederacea
Procedure, shortened: as §1

smallflower flatsedge = experiment: Test B flood test smallflower flatsedge; format: in vivo, Cyperus difformis
Procedure, shortened: as §2

purple nutsedge = experiment: Test B pre/postemergence purple nutsedge; format: in vivo, Cyperus rotundus
Procedure, shortened: as §1

crabgrass = experiment: Test B pre/postemergence crabgrass; format: in vivo, Digitaria sanguinalis
Procedure, shortened: as §1

pigweed = experiment: Test B pre/postemergence pigweed; format: in vivo, Amaranthus retroflexus
Procedure, shortened: as §1

giant foxtail = experiment: Test B pre/postemergence giant foxtail; format: in vivo, Setaria faberii
Procedure, shortened: as §1

wild oat = experiment: Test B pre/postemergence wild oat; format: in vivo, Avena fatua
Procedure, shortened: as §1

rice = experiment: Test B flood test rice; format: in vivo, Oryza sativa
Procedure, shortened: as §2

[1] = Postemergence, Rate 31 g/ha, visual rating, scale 0 to 10 (0 no effect, 10 complete control)
[2] = Preemergence, Rate 62 g/ha, scale of 0 to 10 where 0 is no effect and 10 is complete control
[3] = Preemergence, Rate 250 g/ha, scale of 0 to 10 where 0 is no effect and 10 is complete control
[4] = Rate 62 g/ha, Postemergence, scale 0 to 10 (0 no effect, 10 complete control)
[5] = Rate 125 g/ha, Postemergence, scale of 0 to 10 where 0 is no effect and 10 is complete control
[6] = Rate 125 g/ha, Preemergence, scale of 0 to 10 where 0 is no effect and 10 is complete control
[7] = Rate 250 g/ha, Postemergence, scale of 0 to 10 where 0 is no effect and 10 is complete control
[8] = Preemergence, Rate 31 g/ha, visual rating, scale 0 to 10 (0 no effect, 10 complete control)
[9] = Rate 31 g/ha, Pre-emergence section (flood test species), scale 0 to 10
[10] = Rate 62 g/ha, headed Pre-emergence (flood test species), scale 0 to 10 (0 no effect, 10 complete control)
[11] = Rate 125 g/ha, Pre-emergence, flood test species, scale 0 to 10 where 0 is no effect and 10 is complete control
[12] = Rate 250 g/ha, Pre-emergence, flood-test species, scale 0 to 10, 0 is no effect, 10 is complete control

## CC(C)N(C(=O)n1oc(=O)n(C(C)C)c1=O)c1cnccn1 [Compound 296]
rape; [1]
  Rape plant response rating: 0
rape; [2]
  Rape plant response rating: 0
rape; [3]
  Rape plant response rating: 0
rape; [4]
  Rape plant response rating: 0
rape; [5]
  Rape plant response rating: 0
rape; [6]
  Rape plant response rating: 0
rape; [7]
  Plant response rating, Rape: 0
Surinam grass; [1]
  B. signalgrass plant response rating: 0
Surinam grass; [8]
  B. signalgrass plant response rating: 0
Surinam grass; [2]
  B. signalgrass plant response rating: 0
Surinam grass; [3]
  B. signalgrass plant response rating: 0
Surinam grass; [4]
  B. signalgrass plant response rating: 0
Surinam grass; [5]
  B. signalgrass plant response rating: 0
Surinam grass; [6]
  B. signalgrass plant response rating: 0
Surinam grass; [7]
  Plant response rating, B. signalgrass: 0
bedstraw; [1]
  Bedstraw plant response rating: 0
bedstraw; [8]
  Bedstraw plant response rating: 0
bedstraw; [2]
  Bedstraw plant response rating: 0
bedstraw; [3]
  Bedstraw plant response rating: 0
bedstraw; [4]
  Bedstraw plant response rating: 0
bedstraw; [5]
  Bedstraw plant response rating: 0
bedstraw; [6]
  Bedstraw plant response rating: 0
bedstraw; [7]
  Plant response rating, Bedstraw: 0
bamyardgrass; [9]
  Barnyardgrass plant response rating: 0
bamyardgrass; [10]
  Barnyardgrass plant response rating: 0
bamyardgrass; [11]
  Barnyardgrass plant response rating: 0
bamyardgrass; [12]
  Barnyardgrass plant response rating: 0
blackgrass; [1]
  Blackgrass plant response rating: 0
blackgrass; [8]
  Blackgrass plant response rating: 0
blackgrass; [2]
  Blackgrass plant response rating: 0
blackgrass; [3]
  Blackgrass plant response rating: 0
blackgrass; [4]
  Blackgrass plant response rating: 0
blackgrass; [5]
  Blackgrass plant response rating: 0
blackgrass; [6]
  Blackgrass plant response rating: 0
blackgrass; [7]
  Plant response rating, Blackgrass: 0
wheat; [1]
  Wheat plant response rating: 0
wheat; [2]
  Wheat plant response rating: 0
wheat; [3]
  Wheat plant response rating: 0
wheat; [4]
  Wheat plant response rating: 0
wheat; [5]
  Wheat plant response rating: 0
wheat; [6]
  Wheat plant response rating: 0
wheat; [7]
  Plant response rating, Wheat: 0
Sugar beet; [1]
  Sugarbeets plant response rating: 0
Sugar beet; [2]
  Sugarbeets plant response rating: 0
Sugar beet; [3]
  Sugarbeets plant response rating: 0
Sugar beet; [4]
  Sugarbeets plant response rating: 0
Sugar beet; [5]
  Sugarbeets plant response rating: 0
Sugar beet; [6]
  Sugarbeets plant response rating: 0
Sugar beet; [7]
  Plant response rating, Sugarbeets: 0
corn; [1]
  Corn plant response rating: 0
corn; [8]
  Corn plant response rating: 0
corn; [2]
  Corn plant response rating: 0
corn; [3]
  Corn plant response rating: 0
corn; [4]
  Corn plant response rating: 0
corn; [5]
  Corn plant response rating: 0
corn; [6]
  Corn plant response rating: 0
corn; [7]
  Plant response rating, Corn: 0
morningglory; [1]
  Morningglory plant response rating: 0
morningglory; [2]
  Morningglory plant response rating: 0
morningglory; [3]
  Morningglory plant response rating: 0
morningglory; [4]
  Morningglory plant response rating: 0
morningglory; [5]
  Morningglory plant response rating: 0
morningglory; [6]
  Morningglory plant response rating: 0
morningglory; [7]
  Plant response rating, Morningglory: 1
Smallflower flatsedge; [9]
  S. Flatsedge plant response rating: 0
Smallflower flatsedge; [10]
  S. Flatsedge plant response rating: 0
Smallflower flatsedge; [11]
  S. Flatsedge plant response rating: 0
Smallflower flatsedge; [12]
  S. Flatsedge plant response rating: 0
Purple nutsedge; [1]
  Nutsedge plant response rating: 0
Purple nutsedge; [2]
  Nutsedge plant response rating: 0
Purple nutsedge; [4]
  Nutsedge plant response rating: 0
Purple nutsedge; [5]
  Nutsedge plant response rating: 0
Purple nutsedge; [6]
  Nutsedge plant response rating: 0
Purple nutsedge; [7]
  Plant response rating, Nutsedge: 0
crabgrass; [1]
  Crabgrass plant response rating: 0
crabgrass; [8]
  Crabgrass plant response rating: 0
crabgrass; [2]
  Crabgrass plant response rating: 0
crabgrass; [3]
  Crabgrass plant response rating: 0
crabgrass; [4]
  Crabgrass plant response rating: 0
crabgrass; [5]
  Crabgrass plant response rating: 0
crabgrass; [6]
  Crabgrass plant response rating: 0
crabgrass; [7]
  Plant response rating, Crabgrass: 0
pigweed; [1]
  Redroot pigweed plant response rating: 0
pigweed; [2]
  Redroot pigweed plant response rating: 0
pigweed; [3]
  Redroot pigweed plant response rating: 0
pigweed; [4]
  Redroot pigweed plant response rating: 0
pigweed; [5]
  Redroot pigweed plant response rating: 0
pigweed; [6]
  Redroot pigweed plant response rating: 0
pigweed; [7]
  Plant response rating, Redroot pigweed: 0
Giant foxtail; [1]
  Giant foxtail plant response rating: 0
Giant foxtail; [8]
  Giant foxtail plant response rating: 0
Giant foxtail; [2]
  Giant foxtail plant response rating: 0
Giant foxtail; [3]
  Giant foxtail plant response rating: 0
Giant foxtail; [4]
  Giant foxtail plant response rating: 0
Giant foxtail; [5]
  Giant foxtail plant response rating: 0
Giant foxtail; [6]
  Giant foxtail plant response rating: 0
Giant foxtail; [7]
  Plant response rating, Giant foxtail: 0
Wild oat; [1]
  Wild oats plant response rating: 0
Wild oat; [2]
  Wild oats plant response rating: 0
Wild oat; [3]
  Wild oats plant response rating: 0
Wild oat; [4]
  Wild oats plant response rating: 0
Wild oat; [5]
  Wild oats plant response rating: 0
Wild oat; [7]
  Plant response rating, Wild oats: 0
rice; [9]
  Rice plant response rating: 0
rice; [10]
  Rice plant response rating: 0
rice; [11]
  Rice plant response rating: 0
rice; [12]
  Rice plant response rating: 0

— patent US6737383B1, “Herbicidal oxadiazolidines” (priority 1999, dated 2004)
